For one series, the system named is Mtb H37RvMA. In kind it is cell-based, Mycobacterium tuberculosis.
The nature of a further series: LogD. In kind it is physicochemical.
Series [1] in a line: Microsomal clearance. In kind it is in vitro ADME. The following applies: human microsomes.
Series [2] can be described thus: Microsomal clearance. It counts as in vitro ADME. The following applies: rat microsomes.
A short description of series [3]: Microsomal clearance. The following applies: mouse microsomes. It counts as in vitro ADME.
The next series relates to Human plasma protein. Put plainly: Human plasma protein binding. In kind it is in vitro ADME. The following applies: fraction unbound.
Series [4] is described as follows: Mouse PK, intravenous dosing. It counts as in vivo. As to conditions: for CLb: total body clearance from whole blood; for half-life at 24 h: in vivo, iv, 2 mg/kg.
The format of series [5] is in vivo, mouse. As to conditions: for exposure on oral dosing: oral dosing (data not shown).
For a further series, the system named is replicating Mtb. In kind it is cell-based, Mycobacterium tuberculosis.
Another series has as its system non-replicating Mtb. It counts as cell-based, Mycobacterium tuberculosis.
The test system of a further series is Mtb Erdman strain. In kind it is cell-based, Mycobacterium tuberculosis.
The test system of another series is intracellular Mtb. It counts as cell-based, Mycobacterium tuberculosis. The following applies: read-out: IC90 against intracellular Mtb.
Series [6] deals with Mtb H37Rv.
The conditions of series [7]: aqueous pH 7.4 phosphate buffer simulating thermodynamic conditions.
Series [8] relates to Mtb H37Rv. In words: microbe, parasite or virus in culture. The following applies: Mycobacterium tuberculosis.
The subject of a further series is Mtb isolate S1125. In words: microbe, parasite or virus in culture. In kind it is cell-based. The following applies: Mycobacterium tuberculosis.
The nature of another series: physchem. The following applies: pH 7.

Converted amounts (≈) assume the structure as drawn. Like-named read-outs stand apart in the source and are kept apart here.

As a reminder, the LogD is lipophilicity at a set pH, counting ionised and neutral species. A lower LogD goes with lower lipophilicity. As usually defined, the Vd is the apparent volume that relates the amount in the body to the concentration in plasma or blood. High values mean wide distribution into tissue, low ones little distribution into tissue. As a reminder, the bioavailability is dose-corrected exposure relative to a reference, in per cent. Lower therefore signals poor availability. The term IC90 denotes the concentration at which the effect reaches the 90% level. By solubility is commonly meant how much of the substance goes into solution per volume. Read a low solubility as little dissolved substance. “3-(1,3-bis(4-chlorophenyl)-1H-pyrazol-5-yl)-N-(methylsulfonyl)propanamide [Compound 8]” displayed an MIC in the series with Mtb H37RvMA of 4 µM. In the series “LogD”, the LogD is on record as 2.0. In “Microsomal clearance [1]”, the “Microsomal clearance % remaining, Human” value was 98%. The “Microsomal clearance % remaining, Rat” value in the series “Microsomal clearance [2]” is reported as above 99%. Besides, the “Microsomal clearance % remaining, Mouse” value in the series “Microsomal clearance [3]” was 87%. Also, the “Human PPB fu” value in the series with Human plasma protein turned out to be 0.023. For the same compound, in series [4] (intravenous 2 mg/kg), the “AUC0 – t” value amounted to 4883 µmol·min/L, the Vd is on record as 1.2 L/kg, the t½ terminal is on record as 3.6 h and the CLb is 2.56 mL/min/kg. Further, the “exposure on oral dosing” value in [5] is recorded as “high exposure”. The same compound yielded a bioavailability in [5] (oral dosing, even at high doses) above 95%. Besides, the “log CFU reduction” value in the series on replicating Mtb is 2–2.5 log CFU. In addition, the “activity against non-replicating Mtb” value with non-replicating Mtb is recorded as “not active”. The “MIC against the Mtb Erdman strain” value against Mtb Erdman strain amounted to 9.1 µM. In the series on intracellular Mtb, the IC90 was determined as 11 µM. Also, the MIC in the series with Mtb H37Rv [6] was determined as 4.7 µM. Further, the solubility in series [7] is 100 µM.
In general, half-life refers to how long it takes for the measured level to halve. In turn, `CS(=O)(=O)NC(=O)CCc1cn(-c2ccc(Br)cc2)nc1-c1ccc(Cl)cc1` [Compound 1, 3-(1-(4-bromophenyl)-3-(4-chlorophenyl)-1H-pyrazol-4-yl)-N-(methylsulfonyl)propanamide] had a half-life at 24 h in [4] of 2 h. In series [4] (intravenous 2 mg/kg), this compound had a CLb of 1.18 mL/min/kg. In addition, the “exposure on oral dosing” value in [5] is given as “high exposure”. Moreover, the “log CFU reduction” value with replicating Mtb is 2–2.5 log CFU. In the series with non-replicating Mtb, the “activity against non-replicating Mtb” value was “not active”.
Take `CS(=O)(=O)NC(=O)CCc1cn(-c2ccc(F)cc2)nc1-c1ccc(Cl)cc1` [Compound 3, 3-(3-(4-chlorophenyl)-1-(4-fluorophenyl)-1H-pyrazol-4-yl)-N-(methylsulfonyl)propanamide]: the MIC against Mtb H37Rv [8] was at least 50 µM.
`CS(=O)(=O)NC(=O)CCc1cn(-c2ccc(C(F)(F)F)nc2)nc1-c1ccc(Cl)cc1` [Compound 10, 3-(3-(4-chlorophenyl)-1-(6-(trifluoromethyl)pyridin-3-yl)-1H-pyrazol-4-yl)-N-(methylsulfonyl)propanamide]: the CLb in series [4] (intravenous 2 mg/kg) is on record as 67.4 mL/min/kg.
For `CS(=O)(=O)NC(=O)CCc1cn(-c2ccc(Br)cc2)nc1-c1cccc(Cl)c1` [Compound 14, 3-(1-(4-bromophenyl)-3-(3-chlorophenyl)-1H-pyrazol-4-yl)-N-(methylsulfonyl)propanamide], the MIC against Mtb H37Rv [8] is 2.3 µM (≈ 1.11 µg/mL).
With `CS(=O)(=O)NC(=O)CCc1cn(-c2ccc(Br)cc2)nc1-c1ccncc1` [Compound 16, 3-(1-(4-bromophenyl)-3-(pyridin-4-yl)-1H-pyrazol-4-yl)-N-(methylsulfonyl)propanamide], the MIC against Mtb isolate S1125 lay in the range of 15 to 30 µM (≈ 6.74 to 13.5 µg/mL). Also, in series [4] (intravenous 2 mg/kg), the CLb is on record as above 200 mL/min/kg. Moreover, the “log CFU reduction” value with replicating Mtb is 2–2.5 log CFU. Further, the “activity against non-replicating Mtb” value in the series on non-replicating Mtb is “not active”.
In the case of `CS(=O)(=O)NC(=O)CCc1cn(-c2ccc(Br)cc2)nc1-c1cccnc1` [Compound 17, 3-(1-(4-bromophenyl)-3-(pyridin-3-yl)-1H-pyrazol-4-yl)-N-(methylsulfonyl)propanamide], the CLb in series [4] (intravenous 2 mg/kg) is reported as 178 mL/min/kg.
The same measure, in the same setting: the value for `CS(=O)(=O)NC(=O)CCc1cn(-c2ccc(Br)cc2)nc1C1CCOCC1` [Compound 20, 3-(1-(4-bromophenyl)-3-(tetrahydro-2H-pyran-4-yl)-1H-pyrazol-4-yl)-N-(methylsulfonyl)propanamide] was 145 mL/min/kg.
On to `CS(=O)(=O)NC(=O)CCc1cn(-c2ccc(Br)cc2)nc1C1CCN(C=O)CC1` [Compound 22, 3-(1-(4-bromophenyl)-3-(1-formylpiperidin-4-yl)-1H-pyrazol-4-yl)-N-(methylsulfonyl)propanamide], for which the MIC in the series with Mtb H37Rv [8] is at least 50 µM.
The same measure, in the same setting: the value for `CS(=O)(=O)NC(=O)CCc1cn(-c2ccc(Br)cc2)nc1-c1ccc([N+](=O)[O-])cc1` [Compound 23, 3-(1-(4-bromophenyl)-3-(4-nitrophenyl)-1H-pyrazol-4-yl)-N-(methylsulfonyl)propanamide] was 12.5 µM (≈ 6.17 µg/mL).
Same read-out and setting: the value for `CCS(=O)(=O)NC(=O)CCc1cn(-c2ccc(Br)cc2)nc1-c1ccc(Cl)cc1` [Compound 33, 3-(1-(4-bromophenyl)-3-(4-chlorophenyl)-1H-pyrazol-4-yl)-N-(ethylsulfonyl) propanamide] was 12.5 µM (≈ 6.21 µg/mL); that for `CS(=O)(=O)NC(=O)CCc1cn(-c2ccc(Cl)cc2)nc1-c1ccncc1` [Compound 35, 3-(1-(4-chlorophenyl)-3-(pyridin-4-yl)-1H-pyrazol-4-yl)-N-(methylsulfonyl)propanamide] was 6.25 µM (≈ 2.53 µg/mL).
For `CC(CC(=O)NS(C)(=O)=O)c1cn(-c2ccc(Cl)cc2)nc1-c1ccncc1` (stereo not shown) [Compound 37, 3-(1-(4-chlorophenyl)-3-(pyridin-4-yl)-1H-pyrazol-4-yl)-N-(methylsulfonyl)butanamide], the MIC in the series on Mtb H37Rv [8] was at least 50 µM.
In series [4] (intravenous 2 mg/kg), `CS(=O)(=O)NC(=O)/C=C/c1cn(-c2ccc(Cl)cc2)nc1-c1ccncc1` [Compound 38, (E)-3-(1-(4-chlorophenyl)-3-(pyridin-4-yl)-1H-pyrazol-4-yl)-N-(methylsulfonyl)acrylamide] showed a CLb above 200 mL/min/kg.
In turn, `CS(=O)(=O)NC(=O)/C=C/c1cn(-c2ccc(Br)cc2)nc1-c1ccncc1` [Compound 39, (E)-3-(1-(4-bromophenyl)-3-(pyridin-4-yl)-1H-pyrazol-4-yl)-N-(methylsulfonyl)acrylamide] came in with a solubility in the series “physchem” of 185 µM (≈ 82.8 µg/mL). In the series on Mtb H37Rv [8], this compound yielded an MIC of 1.2 to 4.7 µM (≈ 0.537 to 2.1 µg/mL).
Regarding `CS(=O)(=O)NC(=O)C1CC1c1cn(-c2ccc(Cl)cc2)nc1-c1ccncc1` (stereo not shown) [Compound 40, 2-(1-(4-chlorophenyl)-3-(pyridin-4-yl)-1H-pyrazol-4-yl)-N-(methylsulfonyl)cyclopropane-1-carboxamide], in [4] (intravenous 2 mg/kg), the CLb is reported as above 200 mL/min/kg. In the series on Mtb H37Rv [8], the MIC was in the range of 12.5 to 19 µM (≈ 5.21 to 7.92 µg/mL).
`CS(=O)(=O)NC(=O)C1CC1c1cn(-c2ccc(Br)cc2)nc1-c1ccncc1` (stereo not shown) [Compound 41, 2-(1-(4-bromophenyl)-3-(pyridin-4-yl)-1H-pyrazol-4-yl)-N-(methylsulfonyl)cyclopropane-1-carboxamide]: the MIC against Mtb H37Rv [8] is 12.5 to 19 µM (≈ 5.77 to 8.77 µg/mL).
In the case of `CS(=O)(=O)NC(=O)NCc1cn(-c2ccc(Cl)cc2)nc1-c1ccncc1` [Compound 43, N-(((1-(4-chlorophenyl)-3-(pyridin-4-yl)-1H-pyrazol-4-yl)methyl)carbamoyl)methanesulfonamide], in series [4], the half-life at 24 h is 2 h. Further, in [4] (intravenous 2 mg/kg), the CLb was above 200 mL/min/kg.
`CS(=O)(=O)NC(=O)OCc1cn(-c2ccc(Cl)cc2)nc1-c1ccncc1` [Compound 45, (1-(4-chlorophenyl)-3-(pyridin-4-yl)-1H-pyrazol-4-yl)methyl (methylsulfonyl)carbamate] gave a CLb in series [4] (intravenous 2 mg/kg) above 200 mL/min/kg. Also, the MIC against Mtb H37Rv [8] was 12.5 µM (≈ 5.09 µg/mL).
On to `O=c1[nH]c(CCc2cn(-c3ccc(Br)cc3)nc2-c2ccc(Cl)cc2)no1` [Compound 47, 3-(2-(1-(4-bromophenyl)-3-(4-chlorophenyl)-1H-pyrazol-4-yl)ethyl)-1,2,4-oxadiazol-5(4H)-one], for which the MIC with Mtb H37Rv [8] (336 h) was at least 50 µM.
On to `CS(=O)(=O)NC(=O)CCc1cc(-c2ccc(Br)cc2)nn1-c1ccc(Cl)cc1` [Compound 51, 3-(3-(4-bromophenyl)-1-(4-chlorophenyl)-1H-pyrazol-5-yl)-N-(methylsulfonyl)propanamide], for which, in series [4] (intravenous 2 mg/kg), the CLb was found to be 3.13 mL/min/kg. Besides, in series [5], the “exposure on oral dosing” value is listed as “high exposure”.
In the series with Mtb H37Rv [8], `CS(=O)(=O)NC(=O)CCc1nn(-c2ccc(Br)cc2)cc1-c1ccc(Cl)cc1` [Compound 53, 3-(1-(4-bromophenyl)-4-(4-chlorophenyl)-1H-pyrazol-3-yl)-N-(methylsulfonyl)propanamide] gave an MIC of at least 50 µM.
`CS(=O)(=O)NC(=O)NCc1cc(-c2ccc(Br)cc2)oc1-c1ccncc1` [Compound 58, N-(((5-(4-bromophenyl)-2-(pyridin-4-yl)furan-3-yl)methyl)carbamoyl)methanesulfonamide] came in with a CLb in [4] (intravenous 2 mg/kg) above 200 mL/min/kg.
